Data taken from patent US20070049593A1 (priority 2004, published 2007).
Structures can show the parent of a compound that is named as a salt.

target: T1, HCV polymerase (Hepatitis C virus genotype 1b, UniProt P26663); assay: biochemical; design: species or system HCV BK strain; settings: not given
T1 construct: a region encoding NS5B (J Virol 1991 March, 65(3), 1105-13, 544 amino acids after deletion of 47 amino acids on the C-terminal); 6xHis (C); made in house; host or cells: Escherichia coli
Method in brief: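 Recombinant HCV BK-strain NS5B (C-terminal 47 aa deleted, His6-tagged, E. coli), 0.5 μg/ml, run with 5 μg/ml in vitro-transcribed RNA template (polyU/3′X), ATP/GTP/CTP 50 μM, UTP 2 μM plus [3H]UTP, pH 7.5, 25° C, 90 min. TCA-precipitated RNA counted by scintillation; IC50 from activity with vs without compound.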

T1 sequence (P26663 2420-2963): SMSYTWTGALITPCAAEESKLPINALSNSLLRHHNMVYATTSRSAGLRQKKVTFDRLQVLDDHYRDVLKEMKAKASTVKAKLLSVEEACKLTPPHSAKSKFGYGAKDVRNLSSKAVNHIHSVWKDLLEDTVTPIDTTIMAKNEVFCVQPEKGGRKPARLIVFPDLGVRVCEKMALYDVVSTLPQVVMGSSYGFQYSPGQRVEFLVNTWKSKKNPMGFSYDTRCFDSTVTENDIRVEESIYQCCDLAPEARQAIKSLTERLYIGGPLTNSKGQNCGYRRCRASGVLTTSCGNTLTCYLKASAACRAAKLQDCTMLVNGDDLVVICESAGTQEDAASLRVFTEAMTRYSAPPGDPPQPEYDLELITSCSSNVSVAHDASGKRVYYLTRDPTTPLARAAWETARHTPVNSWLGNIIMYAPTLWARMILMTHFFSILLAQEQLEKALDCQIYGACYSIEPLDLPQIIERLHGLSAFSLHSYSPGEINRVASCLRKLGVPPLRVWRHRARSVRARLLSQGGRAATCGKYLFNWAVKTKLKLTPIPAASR

Compound	IC50 [nM]
O=C(O)c1ccc2c(C3CCCCC3)c3n(c2c1)CCN(CC(=O)N1CCCCCCC1)c1ccccc1-3 [Example 1-131, 5-[2-(azocan-1-yl)-2-oxoethyl]-13-cyclohexyl-6,7-dihydro-5H-benzo[5,6][1,4]diazepino[7,1-a]indole-10-carboxylic acid]	< 100
COc1ccc2c(c1)N(CCOC(C)C)CCn1c-2c(C2CCCCC2)c2ccc(C(=O)NC3(C(=O)Nc4ccc(/C=C/C(=O)O)cc4)CCC3)cc21 [Example 1-482, (E)-3-{4-[(1-{[13-cyclohexyl-5-(2-isopropoxyethyl)-3-methoxy-6,7-dihydro-5H-benzo[5,6][1,4]diazepino[7,1-a]indole-10-carbonyl]amino}cyclobutanecarbonyl)amino]phenyl}acrylic acid]	< 100
COC[C@H](Cc1ccc(O)cc1)NC(=O)c1ccc2c(C3CCCCC3)c3n(c2c1)CCOc1cc(OC)ccc1-3 [Example 2-314, N—[(S)-1-(4-hydroxybenzyl)-2-methoxyethyl]-12-cyclohexyl-3-methoxy-6,7-dihydro-5-oxa-7a-azadibenzo[a,e]azulene-9-carboxamide]	< 100
COC(=O)c1ccc2nc(C(C)(C)NC(=O)c3ccc4c(C5CCCCC5)c5n(c4c3)CCOc3ccccc3-5)n(C)c2c1 [Example 2-336, methyl 2-{1-[(12-cyclohexyl-6,7-dihydro-5-oxa-7a-azadibenzo[a,e]azulene-9-carbonyl)amino]-1-methylethyl}-3-methyl-3H-benzimidazole-5-carboxylate]	< 100
CCOCC[C@@H]1CCCN(CCN2CCn3c(c(C4CCCCC4)c4ccc(C(=O)O)cc43)-c3ccc(OCC)cc32)C1 [Example 1-515, 13-cyclohexyl-3-ethoxy-5-{2-[(S)-3-(2-ethoxyethyl)piperidin-1-yl]ethyl}-6,7-dihydro-5H-benzo[5,6][1,4]diazepino[7,1-a]indole-10-carboxylic acid dihydrochloride]	< 100
Cc1ccc2c(c1)N(C)CCn1c-2c(C2CCCCC2)c2ccc(C(=O)O)c(C)c21 [Example 1-569, 13-cyclohexyl-3,5,9-trimethyl-6,7-dihydro-5H-benzo[5,6][1,4]diazepino[7,1-a]indole-10-carboxylic acid]	100 to 1000
CCCN(CC)CCCN1CCn2c(c(C3CCCCC3)c3ccc(C(=O)O)cc32)-c2ccc(Cl)cc21 [Example 1-428, 3-chloro-13-cyclohexyl-5-[3-(N-ethyl-N-propylamino)propyl]-6,7-dihydro-5H-benzo[5,6][1,4]diazepino[7,1-a]indole-10-carboxylic acid dihydrochloride]	< 100
Cc1ccc2c(c1)N(CCN1CCC[C@@H](CC(C)(C)O)C1)CCn1c-2c(C2CCCCC2)c2ccc(C(=O)O)cc21 [Example 1-529, 13-cyclohexyl-5-{2-[(S)-3-(2-hydroxy-2-methylpropyl)piperidin-1-yl]ethyl}-3-methyl-6,7-dihydro-5H-benzo[5,6][1,4]diazepino[7,1-a]indole-10-carboxylic acid dihydrochloride]	< 100
O=C(O)c1ccc2c(C3CCCCC3)c3n(c2c1)CCN(CCNC12CC4CC(CC(C4)C1)C2)c1ccccc1-3 [Example 1-196, 5-[2-(adamantan-1-ylamino)ethyl]-13-cyclohexyl-6,7-dihydro-5H-benzo[5,6][1,4]diazepino[7,1-a]indole-10-carboxylic acid dihydrochloride]	< 100
COC(=O)[C@@H](Cc1ccc(O)cc1)NC(=O)c1ccc2c(C3CCCCC3)c3n(c2c1)CCOc1ccccc1-3 [Example 2-238, methyl (R)-2-[(12-cyclohexyl-6,7-dihydro-5-oxa-7a-azadibenzo[a,e]azulene-9-carbonyl)amino]-3-(4-hydroxyphenyl)propionate]	< 100
COCC1CCCCN1CCN1CCn2c(c(C3CCCCC3)c3ccc(C(=O)O)cc32)-c2ccccc21 (centres unmarked) [Example 1-271, 13-cyclohexyl-5-[2-(2-methoxymethylpiperidin-1-yl)ethyl]-6,7-dihydro-5H-benzo[5,6][1,4]diazepino[7,1-a]indole-10-carboxylic acid dihydrochloride]	< 100
COc1ccc2c(c1)N(CCOC(C)C)CCn1c-2c(C2CCCCC2)c2ccc(C(=O)O)cc21 [Example 1-480, 13-cyclohexyl-5-(2-isopropoxyethyl)-3-methoxy-6,7-dihydro-5H-benzo[5,6][1,4]diazepino[7,1-a]indole-10-carboxylic acid]	< 100
CCC1CCCCN1CCCN1CCn2c(c(C3CCCCC3)c3ccc(C(=O)O)cc32)-c2ccc(Cl)cc21 (centres unmarked) [Example 1-353, 3-chloro-13-cyclohexyl-5-[3-(2-ethylpiperidin-1-yl)propyl]-6,7-dihydro-5H-benzo[5,6][1,4]diazepino[7,1-a]indole-10-carboxylic acid dihydrochloride]	< 100
CS(=O)(=O)c1cccc(COc2ccc3c(c2)N(CCN2CCCCC2)CCn2c-3c(C3CCCCC3)c3ccc(C(=O)O)cc32)c1 [Example 1-418, 13-cyclohexyl-3-(3-methanesulfonylbenzyloxy)-5-[2-(piperidin-1-yl)ethyl]-6,7-dihydro-5H-benzo[5,6][1,4]diazepino[7,1-a]indole-10-carboxylic acid dihydrochloride]	< 100
Cc1ccc2c(c1)N(CC(=O)N1CCN(S(C)(=O)=O)CC1)CCn1c-2c(C2CCCCC2)c2ccc(C(=O)O)cc21 [Example 1-571, 13-cyclohexyl-5-[2-(4-methanesulfonylpiperazin-1-yl)-2-oxoethyl]-3-methyl-6,7-dihydro-5H-benzo[5,6][1,4]diazepino[7,1-a]indole-10-carboxylic acid]	< 100
CCN1CCN(c2ccc(N3CCCC3=O)cc2COc2ccc3c(c2)OCCn2c-3c(C3CCCCC3)c3ccc(C(=O)O)cc32)CC1 [Example 2-28, 12-cyclohexyl-3-[2-(4-ethylpiperazin-1-yl)-5-(2-oxopyrrolidin-1-yl)benzyloxy]-6,7-dihydro-5-oxa-7a-azadibenzo[a,e]azulene-9-carboxylic acid dihydrochloride]	< 100
CSc1ccc2c(c1)N(CCN1CCCCC1)CCn1c-2c(C2CCCCC2)c2ccc(C(=O)O)cc21 [Example 1-179, 13-cyclohexyl-3-methylsulfanyl-5-[2-(piperidin-1-yl)ethyl]-6,7-dihydro-5H-benzo[5,6][1,4]diazepino[7,1-a]indole-10-carboxylic acid dihydrochloride]	< 100
COc1ccc2c(c1)OCCn1c-2c(C2CCCCC2)c2ccc(C(=O)N[C@@H](Cc3ccc(O)cc3)C(=O)O)cc21 [Example 2-375, (S)-2-[(12-cyclohexyl-3-methoxy-6,7-dihydro-5-oxa-7a-azadibenzo[a,e]azulene-9-carbonyl)amino]-3-(4-hydroxyphenyl)propionic acid]	< 100
Cc1ccc2c(c1)N(CCCN1CCCC1)CCn1c-2c(C2CCCCC2)c2ccc(C(=O)O)cc21 [Example 1-299, 13-cyclohexyl-3-methyl-5-[3-(pyrrolidin-1-yl)propyl]-6,7-dihydro-5H-benzo[5,6][1,4]diazepino[7,1-a]indole-10-carboxylic acid dihydrochloride]	< 100
Cc1ccc(NC(=O)C(C)(C)NC(=O)c2ccc3c(C4CCCCC4)c4n(c3c2)CCOc2ccccc2-4)cc1C(=O)O [Example 2-200, 5-{2-[(12-cyclohexyl-6,7-dihydro-5-oxa-7a-azadibenzo[a,e]azulene-9-carbonyl)amino]-2-methylpropionylamino}-2-methylbenzoic acid]	< 100
CC(=O)N1CCn2c(c(C3CCCCC3)c3ccc(C(=O)O)cc32)-c2ccccc21 [Example 1-19, 5-acetyl-13-cyclohexyl-6,7-dihydro-5H-benzo[5,6][1,4]diazepino[7,1-a]indole-10-carboxylic acid]	100 to 1000
COc1ccc2c(c1)OCCn1c-2c(C2CCCCC2)c2ccc(C(=O)N[C@@H](Cc3ccc(OCc4ccccc4)cc3)c3noc(C)n3)cc21 [Example 2-542, N—[(S)-2-(4-benzyloxyphenyl)-1-(5-methyl-1,2,4-oxadiazol-3-yl)ethyl]-12-cyclohexyl-3-methoxy-6,7-dihydro-5-oxa-7a-azadibenzo[a,e]azulene-9-carboxamide]	< 100
COc1ccc2c(c1)CNCCn1c-2c(C2CCCCC2)c2ccc(C(=O)O)cc21 [Example 11-5, 14-cyclohexyl-3-methoxy-5,6,7,8-tetrahydrobenzo[6,7][1,4]diazocino[8,1-a]indole-11-carboxylic acid monohydrochloride]	< 100
CCN(CCN1CCC(COC)CC1)c1cccc2c1OCCn1c-2c(C2CCCCC2)c2ccc(C(=O)O)cc21 [Example 2-275, 12-cyclohexyl-4-{N-ethyl-N-[2-(4-methoxymethylpiperidin-1-yl)ethyl]amino}-6,7-dihydro-5-oxa-7a-azadibenzo[a,e]azulene-9-carboxylic acid dihydrochloride]	< 100
CC(C)N1CCCC(OCCN2CCn3c(c(C4CCCCC4)c4ccc(C(=O)O)cc43)-c3ccc(Cl)cc32)C1 (centres unmarked) [Example 1-371, 3-chloro-13-cyclohexyl-5-[2-(1-isopropylpiperidin-3-yloxy)ethyl]-6,7-dihydro-5H-benzo[5,6][1,4]diazepino[7,1-a]indole-10-carboxylic acid]	< 100

same assay, conditions: 25° C., 90 min; [5,6-3H]UTP incorporation into RNA; read-out: HCV polymerase inhibitory activity IC50

Compound	IC50 [nM]
COC(=O)C(Cc1ccc(O)cc1)NC(=O)c1ccc2c(C3CCCCC3)c3n(c2c1)CCN(C)c1cc(C)ccc1-3 [Example 1-473, methyl (S)-2-[(13-cyclohexyl-3,5-dimethyl-6,7-dihydro-5H-benzo[5,6][1,4]diazepino[7,1-a]indole-10-carbonyl)amino]-3-(4-hydroxyphenyl)propionate]	< 100
